Measured values as given in patent US20260078119A1, “DEGRADER COMPOUNDS AND USES THEREOF” (Bristol-Myers Squibb Company, priority 2024, published 2026).

Experiments:
FAK = biological target: T1, FAK (Homo sapiens, UniProt Q05397); test: FAK-HiBiT Degradation Assay; format: cell-based; conditions: for DC50: JHH-4-FAK-HiBiT clone d01 cells, two hours incubation, 10-point dose response, 3-fold dilution starting at 1 μM, Nano-Glo HiBiT luminescence, read-out: FAK HiBiT EC50; for FAK HiBiT Ymin: lower limit of the four parameter fit (value A), Ymax derived using DMSO control, JHH-4-FAK-HiBiT cells, two hours
T1 construct: homozygous knock-in of a HiBiT tag (Promega Corporation, Madison, WI) to the C-terminus of the FAK gene in its natural genomic locus; endogenous in cells; host or cells: JHH-4-FAK-HiBiT clone d01 (CRISPR-Cas9 knock-in at the endogenous locus)
T1 sequence (Q05397 whole entry): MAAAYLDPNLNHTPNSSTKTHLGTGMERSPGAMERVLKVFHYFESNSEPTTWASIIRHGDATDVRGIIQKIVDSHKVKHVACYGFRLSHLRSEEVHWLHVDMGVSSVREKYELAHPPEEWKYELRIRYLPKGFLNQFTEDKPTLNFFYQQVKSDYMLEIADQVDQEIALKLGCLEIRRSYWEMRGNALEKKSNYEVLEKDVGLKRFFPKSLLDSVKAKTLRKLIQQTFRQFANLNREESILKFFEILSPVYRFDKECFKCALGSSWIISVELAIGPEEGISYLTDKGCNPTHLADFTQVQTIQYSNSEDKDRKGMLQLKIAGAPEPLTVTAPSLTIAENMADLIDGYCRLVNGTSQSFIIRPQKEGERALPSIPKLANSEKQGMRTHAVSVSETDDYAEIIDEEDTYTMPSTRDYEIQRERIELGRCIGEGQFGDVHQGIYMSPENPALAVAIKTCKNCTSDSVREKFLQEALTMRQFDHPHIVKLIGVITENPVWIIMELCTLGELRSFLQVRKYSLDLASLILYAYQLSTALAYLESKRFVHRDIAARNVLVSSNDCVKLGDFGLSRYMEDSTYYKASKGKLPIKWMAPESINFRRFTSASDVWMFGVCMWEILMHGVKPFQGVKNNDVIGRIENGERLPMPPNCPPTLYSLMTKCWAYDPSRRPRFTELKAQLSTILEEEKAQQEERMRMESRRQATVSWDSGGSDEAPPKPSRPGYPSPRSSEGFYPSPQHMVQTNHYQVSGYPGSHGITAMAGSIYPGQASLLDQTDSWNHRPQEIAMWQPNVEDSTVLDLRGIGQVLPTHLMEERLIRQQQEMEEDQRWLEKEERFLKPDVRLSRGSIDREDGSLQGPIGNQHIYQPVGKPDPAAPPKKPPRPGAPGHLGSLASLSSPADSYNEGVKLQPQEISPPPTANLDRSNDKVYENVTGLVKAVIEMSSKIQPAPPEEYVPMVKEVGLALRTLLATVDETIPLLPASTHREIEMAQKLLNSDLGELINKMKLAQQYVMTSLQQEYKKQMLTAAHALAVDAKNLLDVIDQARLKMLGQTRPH
Procedure, shortened: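 Degradation read out by HiBiT lytic luminescence after 2 h compound exposure (top concentration 1 μM, 3-fold, 10 points) in JHH-4 clone d01 bearing endogenous FAK-HiBiT knock-in. Four-parameter logistic fit gave EC50 and Ymin; DMSO wells defined Ymax.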

CAL-51 cells = test: CAL-51 Cell Proliferation Assay; format: cell-based; conditions: for EC50: Homo sapiens, 120 hours incubation, 10-point dose response, 4-fold dilutions starting at 10 μM, Cell-Titer-Glo, read-out: CAL-51 Prolif EC50; for CAL-51 Prolif Ymin: minimal percent of DMSO control observed in the concentrations tested (Ymin-obs), 120 hours
Procedure, shortened: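 EC50 comes from a four-parameter logistic fit of blank-corrected, DMSO-normalised CellTiter-Glo signal after 120 h growth (37 °C, 350 cells/well, RPMI complete medium). Compounds ran as 10-point 4-fold series starting at 10 μM, duplicate, 0.1% DMSO. Ymin-obs records the minimal percent of DMSO control observed.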

SMILES: CCOc1cnc(-c2cc(N3CC(F)C3)nc3c2cnn3Cc2ccc3c(c2)CN([C@H]2CCC(=O)NC2=O)C3=O)c(C)c1 [Example 82, (3S)-3-(5-{[4-(5-ethoxy-3-methylpyridin-2-yl)-6-(3-fluoroazetidin-1-yl)-1H-pyrazolo[3,4-b]pyridin-1-yl]methyl}-1-oxo-2,3-dihydro-1H-isoindol-2-yl)piperidine-2,6-dione]
- DC50 (FAK): 9.61 nM
- FAK HiBiT Ymin (FAK): 8.29
- EC50 (CAL-51 cells): 4.19 nM
- CAL-51 Prolif Ymin (CAL-51 cells): 29.74

SMILES: CC(C)Nc1nc2c(cnn2Cc2ccc3c(c2)CN([C@H]2CCC(=O)NC2=O)C3=O)c(-c2ncc(F)cc2Cl)c1F (single isomer, unassigned) [Example 9]
- DC50 (FAK): 0.55 nM
- FAK HiBiT Ymin (FAK): 9.43
- EC50 (CAL-51 cells): 0.46 nM
- CAL-51 Prolif Ymin (CAL-51 cells): 22.89

SMILES: CN(c1cc(-c2ncc(C(F)(F)F)cc2Cl)c2cnn(Cc3ccc4c(c3)CN([C@H]3CCC(=O)NC3=O)C4=O)c2n1)C1COC1 [Example 99, (3S)-3-[5-({4-[3-chloro-5-(trifluoromethyl)pyridin-2-yl]-6-[methyl(oxetan-3-yl)amino]-1H-pyrazolo[3,4-b]pyridin-1-yl}methyl)-1-oxo-2,3-dihydro-1H-isoindol-2-yl]piperidine-2,6-dione]
- DC50 (FAK): 25.3 nM
- FAK HiBiT Ymin (FAK): 13.33
- EC50 (CAL-51 cells): 117 nM
- CAL-51 Prolif Ymin (CAL-51 cells): 36.78

SMILES: CC(C)(O)c1ccc(-c2cc(N3CCC3)nc3c2cnn3Cc2ccc3c(c2)CN(C2CCC(=O)NC2=O)C3=O)c(Cl)c1 (centres unmarked) [Example 105, 3-(5-{[6-(azetidin-1-yl)-4-[2-chloro-4-(2-hydroxypropan-2-yl)phenyl]-1H-pyrazolo[3,4-b]pyridin-1-yl]methyl}-1-oxo-2,3-dihydro-1H-isoindol-2-yl)piperidine-2,6-dione]
- DC50 (FAK): 35.7 nM
- FAK HiBiT Ymin (FAK): 27.68
- EC50 (CAL-51 cells): 4.91 nM
- CAL-51 Prolif Ymin (CAL-51 cells): 55.87

SMILES: O=C1CC[C@H](N2Cc3cc(Cn4ncc5c(-c6ncc(OC(F)F)cc6Cl)cc(N6CC(F)C6)nc54)ccc3C2=O)C(=O)N1 [Example 49, (3S)-3-[5-({4-[3-chloro-5-(difluoromethoxy)pyridin-2-yl]-6-(3-fluoroazetidin-1-yl)-1H-pyrazolo[3,4-b]pyridin-1-yl}methyl)-1-oxo-2,3-dihydro-1H-isoindol-2-yl]piperidine-2,6-dione]
- DC50 (FAK): 2 nM
- FAK HiBiT Ymin (FAK): 7.78
- EC50 (CAL-51 cells): 0.37 nM
- CAL-51 Prolif Ymin (CAL-51 cells): 23.11

SMILES: O=C1CCC(N2Cc3cc(Cn4ncc5c(-c6ncc(Cl)cc6Cl)c(F)c(N6CC(F)C6)nc54)ccc3C2=O)C(=O)N1 (centres unmarked) [Example 8, 3-(5-{[4-(3,5-dichloropyridin-2-yl)-5-fluoro-6-(3-fluoroazetidin-1-yl)-1H-pyrazolo[3,4-b]pyridin-1-yl]methyl}-1-oxo-2,3-dihydro-1H-isoindol-2-yl)piperidine-2,6-dione]
- DC50 (FAK): 0.55 nM
- FAK HiBiT Ymin (FAK): 9.05
- EC50 (CAL-51 cells): 0.85 nM
- CAL-51 Prolif Ymin (CAL-51 cells): 17.44

SMILES: O=C1CCC(N2Cc3cc(Cn4cnc5c(-c6ccc(F)cc6F)cc(N6CC(F)C6)nc54)ccc3C2=O)C(=O)N1 (centres unmarked) [Example 22, 3-(5-((7-(2,4-difluorophenyl)-5-(3-fluoroazetidin-1-yl)-3H-imidazo[4,5-b]pyridin-3-yl)methyl)-1-oxoisoindolin-2-yl)piperidine-2,6-dione]
- DC50 (FAK): 0.68 nM
- FAK HiBiT Ymin (FAK): 10.53
- EC50 (CAL-51 cells): 0.39 nM
- CAL-51 Prolif Ymin (CAL-51 cells): 22.20

SMILES: O=C1CC[C@H](N2Cc3cc(Cn4ncc5c(-c6ncc(C7COC7)cc6Cl)cc(N6CC(F)C6)nc54)ccc3C2=O)C(=O)N1 (single isomer, unassigned) [Example 108]
- DC50 (FAK): 40.5 nM
- FAK HiBiT Ymin (FAK): 13.46
- EC50 (CAL-51 cells): 18.2 nM
- CAL-51 Prolif Ymin (CAL-51 cells): 28.68

SMILES: CC(C)Nc1cc(-c2ncc(C(F)(F)F)cc2Cl)c2cnn(Cc3ccc4c(c3)CN([C@H]3CCC(=O)NC3=O)C4=O)c2n1 [Example 45, (3S)-3-[5-({4-[3-chloro-5-(trifluoromethyl)pyridin-2-yl]-6-[(propan-2-yl)amino]-1H-pyrazolo[3,4-b]pyridin-1-yl}methyl)-1-oxo-2,3-dihydro-1H-isoindol-2-yl]piperidine-2,6-dione]
- DC50 (FAK): 1.76 nM
- FAK HiBiT Ymin (FAK): 6.88
- EC50 (CAL-51 cells): 0.76 nM
- CAL-51 Prolif Ymin (CAL-51 cells): 30.48

SMILES: CCOc1ccc(-c2c(F)c(N3CC[C@](C)(O)C3)nc3c2cnn3Cc2ccc3c(c2)CN([C@H]2CCC(=O)NC2=O)C3=O)c(Cl)c1 [Example 67, (3S)-3-(5-{[4-(2-chloro-4-ethoxyphenyl)-5-fluoro-6-[(3S)-3-hydroxy-3-methylpyrrolidin-1-yl]-1H-pyrazolo[3,4-b]pyridin-1-yl]methyl}-1-oxo-2,3-dihydro-1H-isoindol-2-yl)piperidine-2,6-dione]
- DC50 (FAK): 5.06 nM
- FAK HiBiT Ymin (FAK): 9.35
- EC50 (CAL-51 cells): 1.6 nM
- CAL-51 Prolif Ymin (CAL-51 cells): 28.60

SMILES: CN(c1cc(-c2ncc(C(F)(F)F)cc2Cl)c2cnn(Cc3ccc4c(c3)CN([C@H]3CCC(=O)NC3=O)C4=O)c2n1)[C@H]1C[C@@H](O)C1 [Example 120, (3R)-3-[5-({4-[3-chloro-5-(trifluoromethyl)pyridin-2-yl]-6-{methyl[(1s,3s)-3-hydroxycyclobutyl]amino}-1H-pyrazolo[3,4-b]pyridin-1-yl}methyl)-1-oxo-2,3-dihydro-1H-isoindol-2-yl]piperidine-2,6-dione]
- DC50 (FAK): 87.1 nM
- FAK HiBiT Ymin (FAK): 12.66
- EC50 (CAL-51 cells): 3.03 nM
- CAL-51 Prolif Ymin (CAL-51 cells): 28.57

SMILES: CCOc1ccc(Cl)c(-c2cc(N3CC(F)C3)nc3c2cnn3Cc2ccc3c(c2)CN([C@H]2CCC(=O)NC2=O)C3=O)n1 [Example 111, (3S)-3-(5-{[4-(3-chloro-6-ethoxypyridin-2-yl)-6-(3-fluoroazetidin-1-yl)-1H-pyrazolo[3,4-b]pyridin-1-yl]methyl}-1-oxo-2,3-dihydro-1H-isoindol-2-yl)piperidine-2,6-dione]
- DC50 (FAK): 45.8 nM
- FAK HiBiT Ymin (FAK): 73.08
- EC50 (CAL-51 cells): 551 nM
- CAL-51 Prolif Ymin (CAL-51 cells): 60.03

SMILES: O=C1CCC(N2Cc3cc(Cn4cnc5c(-c6ncc(F)cc6Cl)cc(N6CC(F)C6)nc54)ccc3C2=O)C(=O)N1 (centres unmarked) [Example 25, 3-(5-((7-(3-chloro-5-fluoropyridin-2-yl)-5-(3-fluoroazetidin-1-yl)-3H-imidazo[4,5-b]pyridin-3-yl)methyl)-1-oxoisoindolin-2-yl)piperidine-2,6-dione]
- DC50 (FAK): 21.1 nM
- FAK HiBiT Ymin (FAK): 5.97
- EC50 (CAL-51 cells): 146 nM
- CAL-51 Prolif Ymin (CAL-51 cells): 46.08

SMILES: O=C1CC[C@@H](N2Cc3cc(Cn4ncc5c(-c6ncc(C7COC7)cc6Cl)cc(N6CC(F)C6)nc54)ccc3C2=O)C(=O)N1 (single isomer, unassigned) [Example 127]
- DC50 (FAK): 213 nM
- FAK HiBiT Ymin (FAK): 42.87
- EC50 (CAL-51 cells): 8.94 nM
- CAL-51 Prolif Ymin (CAL-51 cells): 37.97
